Assay results as given in patent publication US7696249B2, “Diphenyl urea derivatives” (ARPIDA AG, priority 2005, dated 2010).
In brackets after ≈: the same amount, converted by molar mass. Like-named read-outs stand apart in the source and are kept apart here.

Tests used:
Assay type in all cases: cell-based
S. pyogenes GAS-1 = assay: MIC, CLSI methodology with Todd Hewitt Broth without blood; details: for MIC: Streptococcus pyogenes, GAS1, pathogens for ocular infections, read-out: Minimum Inhibitory Concentration (MIC) S. pyogenes GAS-1; for Minimum Inhibitory Concentration (MIC) S. pyogenes GAS-1: pathogens for skin infections
Protocol: (§1) Antimicrobial susceptibility testing was performed in accordance with the Clinical and Laboratory Standards Institute (CLSI). Clinical and Laboratory Standards Institute (CLSI; formerly NCCLS): Methods for Dilution Antimicrobial Susceptibility Tests for Bacteria That Grow Aerobically; Approved Standard—Seventh Edition (2006). Clinical and Laboratory Standards Institute document M7-A7. Streptococci (S. pneumoniae, S. pyogenes, S. viridans) were tested following the CLSI methodology with the exception that Todd Hewitt Broth without blood was used. Anaerobic bacteria (P. acnes, B. distasonis) were tested following CLSI (formerly NCCLS) guidelines except for using microbroth dilutions in Wilkins Chalgren Broth. National Committee for Clinical Laboratory Standards (NCCLS). Methods for Anti-microbial Susceptibility Testing of Anaerobic Bacteria; Approved Standard—Sixth Edition (2004). NCCLS document M11-A6.

S. viridans UHC 7 = assay: as above; details: Streptococcus viridans, UHC7; pathogens for dental infections; read-out: Minimum Inhibitory Concentration (MIC) S. viridans UHC 7
Protocol: as §1

S. pneumoniae 1/1 = assay: as above; details: Streptococcus pneumoniae, pathogens for ocular infections, read-out: Minimum Inhibitory Concentration (MIC) S. pneumoniae 1/1
Protocol: as §1

P. acnes 6390 = assay: MIC, anaerobic bacteria, microbroth dilutions in Wilkins Chalgren Broth; details: Cutibacterium acnes, pathogens for skin infections, read-out: Minimum Inhibitory Concentration (MIC) P. acnes 6390
Protocol: as §1, with “(CLSI).” for “(CLSI). Clinical and Laboratory Standards Institute (CLSI; formerly NCCLS): Methods for Dilution Antimicrobial Susceptibility Tests for Bacteria That Grow Aerobically; Approved Standard—Seventh Edition (2006). Clinical and Laboratory Standards Institute document M7-A7.”

B. distasonis 5770 = assay: as above; details: Parabacteroides distasonis, pathogens for gastro-intestinal infections, read-out: Minimum Inhibitory Concentration (MIC) B. distasonis 5770
Protocol: as §1, with “(CLSI).” for “(CLSI). Clinical and Laboratory Standards Institute (CLSI; formerly NCCLS): Methods for Dilution Antimicrobial Susceptibility Tests for Bacteria That Grow Aerobically; Approved Standard—Seventh Edition (2006). Clinical and Laboratory Standards Institute document M7-A7.”

S. aureus MRSA 39 = assay: MIC, broth dilution antimicrobial susceptibility testing (CLSI); details: for MIC: Staphylococcus aureus, MRSA, pathogens for nasal colonization, read-out: Minimum Inhibitory Concentration (MIC) S. aureus MRSA 39
Protocol: (§2) Antimicrobial susceptibility testing was performed in accordance with the Clinical and Laboratory Standards Institute (CLSI).
(§3) Clinical and Laboratory Standards Institute (CLSI; formerly NCCLS): Methods for Dilution Antimicrobial Susceptibility Tests for Bacteria That Grow Aerobically; Approved Standard—Seventh Edition (2006). Clinical and Laboratory Standards Institute document M7-A7.

S. aureus ATCC 25923 = assay: as above; details: Staphylococcus aureus, ATCC25923
Protocol: as §2, §3

S. aureus MRSA 101 = assay: as above; details: for MIC: Staphylococcus aureus, MRSA, pathogens for nasal colonization, read-out: Minimum Inhibitory Concentration (MIC) S. aureus MRSA 101; for Minimum Inhibitory Concentration (MIC) S. aureus MRSA 101: pathogens for ocular infections
Protocol: as §2, §3

E. faecalis VanB E80-8 = assay: as above; details: for MIC: Enterococcus faecalis, VANBE808, pathogens for skin infections, read-out: Minimum Inhibitory Concentration (MIC) E. faecalis VanB E80-8; for Minimum Inhibitory Concentration (MIC) E. faecalis VanB E80-8: pathogens for gastro-intestinal infections
Protocol: as §2, §3

S. epidermidis MRSE 70 = assay: as above; details: for MIC: Staphylococcus epidermidis, MRSE, pathogens for nasal colonization, read-out: Minimum Inhibitory Concentration (MIC) S. epidermidis MRSE 70
Protocol: as §2, §3

[1] = pathogens for ocular infections
[2] = pathogens for nasal colonization, read-out: Minimum Inhibitory Concentration (MIC) S. aureus ATCC 25923
[3] = pathogens for ocular infections, read-out: Minimum Inhibitory Concentration (MIC) S. aureus 25923

Row | MIC (S. pyogenes GAS-1) [µg/mL] | Minimum Inhibitory Concentration (MIC) S. pyogenes GAS-1 (S. pyogenes GAS-1) [micrograms/ml] | MIC (S. viridans UHC 7) [µg/mL] | MIC (S. pneumoniae 1/1) [µg/mL] | MIC (P. acnes 6390) [µg/mL] | MIC (B. distasonis 5770) [µg/mL] | MIC (S. aureus MRSA 39) [µg/mL] | Minimum Inhibitory Concentration (MIC) S. aureus MRSA 39 (S. aureus MRSA 39; [1]) [micrograms/ml] | Minimum Inhibitory Concentration (MIC) S. aureus MRSA 39 (S. aureus MRSA 39; pathogens for skin infections) [micrograms/ml] | MIC (S. aureus ATCC 25923; [2]) [µg/mL] | MIC (S. aureus ATCC 25923; [3]) [µg/mL] | MIC (S. aureus MRSA 101) [µg/mL] | Minimum Inhibitory Concentration (MIC) S. aureus MRSA 101 (S. aureus MRSA 101) [micrograms/ml] | MIC (E. faecalis VanB E80-8) [µg/mL] | Minimum Inhibitory Concentration (MIC) E. faecalis VanB E80-8 (E. faecalis VanB E80-8) [micrograms/ml] | MIC (S. epidermidis MRSE 70) [µg/mL] | Minimum Inhibitory Concentration (MIC) S. epidermidis MRSE 70 (S. epidermidis MRSE 70; [1]) [micrograms/ml] | Minimum Inhibitory Concentration (MIC) S. epidermidis MRSE 70 (S. epidermidis MRSE 70; pathogens for skin infections) [micrograms/ml] | SMILES
1 | 0.125 (≈ 0.312 µM) | 0.125 | 0.5 (≈ 1.25 µM) | 0.06 (≈ 0.15 µM) | ≤ 0.03 | 0.25 (≈ 0.624 µM) | 0.125 (≈ 0.312 µM) | 0.125 | 0.125 | 0.125 (≈ 0.312 µM) | 0.125 (≈ 0.312 µM) | 0.125 (≈ 0.312 µM) | 0.125 | 1 (≈ 2.5 µM) | 1 | 0.25 (≈ 0.624 µM) | 0.25 | 0.25 | O=C(Nc1cc(F)cc(C(F)(F)F)c1)Nc1ccc(Cl)c(C(F)(F)F)c1 [Example 1, 1-(3-Fluoro-5-trifluoromethyl-phenyl)-3-(4-chloro-3-trifluoromethyl-phenyl)-urea]
2 | 0.5 (≈ 1.2 µM) | 0.5 | 2 (≈ 4.8 µM) | 0.5 (≈ 1.2 µM) | ≤ 0.03 | 0.5 (≈ 1.2 µM) | 0.25 (≈ 0.6 µM) | 0.25 | 0.25 | 0.25 (≈ 0.6 µM) | 0.25 (≈ 0.6 µM) | 0.25 (≈ 0.6 µM) | 0.25 | 2 (≈ 4.8 µM) | 2 | 0.25 (≈ 0.6 µM) | 0.25 | 0.25 | Fc1cc(NC(=S)Nc2ccc(Cl)c(C(F)(F)F)c2)cc(C(F)(F)F)c1 [Example 3, 1-(3-Fluoro-5-trifluoromethyl-phenyl)-3-(4-chloro-3-trifluoromethyl-phenyl)-thiourea]
3 | 0.06 (≈ 0.135 µM) | 0.06 | 0.5 (≈ 1.12 µM) | ≤ 0.03 | ≤ 0.03 | 0.25 (≈ 0.562 µM) | 0.125 (≈ 0.281 µM) | 0.125 | 0.125 | 0.125 (≈ 0.281 µM) | 0.125 (≈ 0.281 µM) | 0.25 (≈ 0.562 µM) | 0.25 | 1 (≈ 2.25 µM) | 1 | 0.5 (≈ 1.12 µM) | 0.5 | 0.5 | O=C(Nc1cc(F)cc(C(F)(F)F)c1)Nc1ccc(Br)c(C(F)(F)F)c1 [Example 2, 1-(3-Fluoro-5-trifluoromethyl-phenyl)-3-(4-bromo-3-trifluoromethyl-phenyl)-urea]
